According to PubChem BioAssay AID324 (DTP/NCI, 2004):
“And” between values parts separate entries of the source, which are not always exact repeats. Equal values may be shown once. Inconclusive results and toxic doses are left out.

Test system: CD2F1 mice, AMSA-resistant P388 leukemia ip, median survival T/C
Assay: NCI In Vivo Anticancer Drug Screen. Data for tumor model P388 Leukemia resistant to AMSA; NSC 249992 (intraperitoneal) in CD2F1 (CDF1) mice
Details: endpoint: median survival time, higher = longer survival
Experimental: The antitumor activity of compounds was measured in mice bearing transplantable tumors. Survival or tumor size were measured and the results are expressed as the measurement made in the treated group (T) divided by the measurement made in the vehicle treated control group (C). The tumor model used in this assay is P388 Leukemia resistant to AMSA; NSC 249992 (intraperitoneal) in CD2F1 (CDF1) mice

`COC(=O)[C@@H]1c2cc3c(c(O)c2[C@@H](OC2OC(C)C(OC)C(C)(OC)C2OC)C[C@]1(C)O)C(=O)c1c(O)cc2c(c1C3=O)O[C@H]1O[C@]2(C)[C@H](O)[C@@H](N(C)C)[C@@H]1O` (some centres not stated) was tested. Which T/C (dose: 0.43 mg/kg/injection, schedule: Q04DX003 (ip), vehicle: water) did it give?
Its T/C is 108 % of control.

What about the T/C (dose: 0.52 mg/kg/injection, schedule: Q04DX003 (ip), vehicle: clinical formulation) of the same compound?
The T/C was 107 % of control.

What about the T/C (dose: 0.72 mg/kg/injection, schedule: Q04DX003 (ip), vehicle: water) of the same compound?
The T/C was 113 % of control.

And the T/C (dose: 0.86 mg/kg/injection, schedule: Q04DX003 (ip), vehicle: clinical formulation)?
The T/C was 114 % of control.

What about the T/C (dose: 1.2 mg/kg/injection, schedule: Q04DX003 (ip), vehicle: water) of the same compound?
The T/C was 107 % of control.

What about the T/C (dose: 1.44 mg/kg/injection, schedule: Q04DX003 (ip), vehicle: clinical formulation) of the same compound?
The T/C was 112 % of control.

What about the T/C (dose: 2.0 mg/kg/injection, schedule: Q04DX003 (ip), vehicle: water) of the same compound?
Its T/C is 118 % of control.

And the T/C (dose: 2.4 mg/kg/injection, schedule: Q04DX003 (ip), vehicle: clinical formulation)?
The T/C was 110 % of control.

What about the T/C (dose: 3.33 mg/kg/injection, schedule: Q04DX003 (ip), vehicle: water) of the same compound?
The T/C was 97 % of control.

Which results are given for `CC[C@](O)(C(=O)O)c1cc2n(c(=O)c1CO)Cc1cc3ccccc3nc1-2`?
T/C (dose: 18.0 mg/kg/injection, schedule: Q04DX003 (ip), vehicle: saline): 192 % of control; T/C (dose: 30.0 mg/kg/injection, schedule: Q04DX003 (ip), vehicle: saline): 193 % of control; T/C (dose: 50.0 mg/kg/injection, schedule: Q04DX003 (ip), vehicle: saline): 240 % of control

Which T/C (dose: 1.62 mg/kg/injection, schedule: Q04DX003 (ip), vehicle: saline) does the source give for `N[C@@H](Cc1ccc(N(CCCl)CCCl)cc1)C(=O)O` here?
Its T/C is 208 % of control.

And the T/C (dose: 1.94 mg/kg/injection, schedule: Q04DX002 (ip), vehicle: saline)?
Its T/C is 211 % of control and 212 % of control.

And the T/C (dose: 2.7 mg/kg/injection, schedule: Q04DX003 (ip), vehicle: saline)?
Its T/C is 211 % of control.

And the T/C (dose: 3.24 mg/kg/injection, schedule: Q04DX002 (ip), vehicle: saline)?
The T/C was 259 % of control and 262 % of control.

And the T/C (dose: 4.5 mg/kg/injection, schedule: Q04DX003 (ip), vehicle: saline)?
Its T/C is 391 % of control.

What about the T/C (dose: 5.4 mg/kg/injection, schedule: Q04DX002 (ip), vehicle: saline) of the same compound?
Its T/C is 416 % of control.

What about the T/C (dose: 7.5 mg/kg/injection, schedule: Q04DX003 (ip), vehicle: saline) of the same compound?
The T/C was 391 % of control.

What about the T/C (dose: 9.0 mg/kg/injection, schedule: Q04DX002 (ip), vehicle: saline) of the same compound?
Its T/C is 416 % of control.

What about the T/C (dose: 12.5 mg/kg/injection, schedule: Q04DX003 (ip), vehicle: saline) of the same compound?
The T/C was 391 % of control.

What about the T/C (dose: 15.0 mg/kg/injection, schedule: Q04DX002 (ip), vehicle: saline) of the same compound?
Its T/C is 120 % of control and 86 % of control.

How did the T/C (dose: 25.9 mg/kg/injection, schedule: Q04DX003 (ip), vehicle: water) turn out when `COc1cc2cc3c4cc(OC)c(OC)cc4cc[n+]3c(C)c2cc1OC` (tested in a mixture with another compound) was run?
Its T/C is 110 % of control.

And the T/C (dose: 43.2 mg/kg/injection, schedule: Q04DX003 (ip), vehicle: water)?
Its T/C is 116 % of control.

What does the source list for `COc1cccc2c1C(=O)c1c(O)c3c(c(O)c1C2=O)C[C@@](O)(C(C)=O)C[C@@H]3OC1CC(N(C)C)C(O)C(C)O1` (some centres not stated)?
T/C (dose: 3.6 mg/kg/injection, schedule: Q04DX003 (ip), vehicle: water): 150 % of control; T/C (dose: 6.0 mg/kg/injection, schedule: Q04DX003 (ip), vehicle: water): 168 % of control; T/C (dose: 10.0 mg/kg/injection, schedule: Q04DX003 (ip), vehicle: water): 166 % of control; T/C (dose: 16.7 mg/kg/injection, schedule: Q04DX003 (ip), vehicle: water): 107 % of control

Which results are given for `COc1cccc2c1C(=O)c1c(O)c3c(c(O)c1C2=O)C[C@@](O)(C(=O)CO)C[C@@H]3OC1CC(NCc2ccccc2)C(O)C(C)O1` (some centres not stated)?
T/C (dose: 3.89 mg/kg/injection, schedule: Q04DX003 (ip), vehicle: water): 123 % of control; T/C (dose: 30.0 mg/kg/injection, schedule: Q04DX003 (ip), vehicle: water): 100 % of control

Which results are given for `c1ccc2c(NCCCCCCNc3c4ccccc4nc4ccccc34)c3ccccc3nc2c1`?
T/C (dose: 1.94 mg/kg/injection, schedule: Q01DX009 (ip), vehicle: other): 123 % of control; T/C (dose: 2.59 mg/kg/injection, schedule: Q04DX003 (ip), vehicle: other): 123 % of control; T/C (dose: 4.32 mg/kg/injection, schedule: Q04DX003 (ip), vehicle: other): 110 % of control; T/C (dose: 7.2 mg/kg/injection, schedule: Q04DX003 (ip), vehicle: other): 94 % of control; T/C (dose: 7.78 mg/kg/injection, schedule: Q01DX001 (ip), vehicle: water): 93 % of control; T/C (dose: 10.0 mg/kg/injection, schedule: Q01DX009 (ip), vehicle: Klucel (hydroxypropylcellulose) (HPC)): 150 % of control; T/C (dose: 13.0 mg/kg/injection, schedule: Q01DX001 (ip), vehicle: water): 98 % of control

`CCN(CC)C1CC(O[C@H]2C[C@](O)(C(C)=O)Cc3c(O)c4c(c(O)c32)C(=O)c2c(OC)cccc2C4=O)OC(C)C1O` (some centres not stated) was tested. Which T/C (dose: 4.32 mg/kg/injection, schedule: Q04DX003 (ip), vehicle: water) did it give?
Its T/C is 117 % of control.

What about the T/C (dose: 20.0 mg/kg/injection, schedule: Q04DX003 (ip), vehicle: water) of the same compound?
The T/C was 166 % of control.

Which T/C (dose: 13.0 mg/kg/injection, schedule: Q04DX003 (ip), vehicle: saline with Tween-80) does the source give for `CN(C)c1ccc(Nc2c3ccccc3nc3ccccc23)cc1` here?
Its T/C is 100 % of control.

What about the T/C (dose: 21.6 mg/kg/injection, schedule: Q04DX003 (ip), vehicle: saline with Tween-80) of the same compound?
The T/C was 98 % of control.

And the T/C (dose: 25.9 mg/kg/injection, schedule: Q04DX003 (ip), vehicle: saline)?
The T/C was 101 % of control.

And the T/C (dose: 36.0 mg/kg/injection, schedule: Q04DX003 (ip), vehicle: saline with Tween-80)?
The T/C was 96 % of control.

And the T/C (dose: 43.2 mg/kg/injection, schedule: Q04DX003 (ip), vehicle: saline)?
Its T/C is 104 % of control.

And the T/C (dose: 60.0 mg/kg/injection, schedule: Q04DX003 (ip), vehicle: saline with Tween-80)?
Its T/C is 100 % of control.

And the T/C (dose: 72.0 mg/kg/injection, schedule: Q04DX003 (ip), vehicle: saline)?
The T/C was 100 % of control.

What about the T/C (dose: 100.0 mg/kg/injection, schedule: Q04DX003 (ip), vehicle: saline with Tween-80) of the same compound?
Its T/C is 103 % of control.

What does the source list for `CC(=O)[C@]1(O)Cc2c(O)c3c(c(O)c2[C@@H](OC2CC(N)C(O)C(C)O2)C1)C(=O)c1c(O)cccc1C3=O` (some centres not stated)?
T/C (dose: 0.13 mg/kg/injection, schedule: Q04DX003 (ip), vehicle: water): 122 % of control; T/C (dose: 0.21 mg/kg/injection, schedule: Q04DX003 (ip), vehicle: water): 115 % of control; T/C (dose: 0.36 mg/kg/injection, schedule: Q04DX003 (ip), vehicle: water): 109 % of control; T/C (dose: 0.6 mg/kg/injection, schedule: Q04DX003 (ip), vehicle: water): 124 % of control; T/C (dose: 1.0 mg/kg/injection, schedule: Q04DX003 (ip), vehicle: water): 97 % of control

With `O=P1(N(CCCl)CCCl)NCCCO1` (configuration not stated) as the compound, how does the T/C (dose: 16.2 mg/kg/injection, schedule: Q04DX003 (ip), vehicle: saline) read?
Its T/C is 196 % of control.

And the T/C (dose: 25.9 mg/kg/injection, schedule: Q04DX002 (ip), vehicle: saline)?
The T/C was 220 % of control.

And the T/C (dose: 27.0 mg/kg/injection, schedule: Q04DX003 (ip), vehicle: saline)?
Its T/C is 240 % of control.

And the T/C (dose: 32.4 mg/kg/injection, schedule: Q04DX002 (ip), vehicle: saline)?
Its T/C is 243 % of control.

What about the T/C (dose: 43.2 mg/kg/injection, schedule: Q04DX002 (ip), vehicle: saline) of the same compound?
Its T/C is 333 % of control.

And the T/C (dose: 45.0 mg/kg/injection, schedule: Q04DX003 (ip), vehicle: saline)?
Its T/C is 348 % of control.

And the T/C (dose: 54.0 mg/kg/injection, schedule: Q04DX002 (ip), vehicle: saline)?
The T/C was 305 % of control.

What about the T/C (dose: 72.0 mg/kg/injection, schedule: Q04DX002 (ip), vehicle: saline) of the same compound?
Its T/C is 407 % of control.

And the T/C (dose: 75.0 mg/kg/injection, schedule: Q04DX003 (ip), vehicle: saline)?
Its T/C is 348 % of control.

And the T/C (dose: 90.0 mg/kg/injection, schedule: Q04DX002 (ip), vehicle: saline)?
The T/C was 416 % of control.

What about the T/C (dose: 120.0 mg/kg/injection, schedule: Q04DX002 (ip), vehicle: saline) of the same compound?
The T/C was 416 % of control.

And the T/C (dose: 125.0 mg/kg/injection, schedule: Q04DX003 (ip), vehicle: saline)?
Its T/C is 348 % of control.

What about the T/C (dose: 150.0 mg/kg/injection, schedule: Q04DX002 (ip), vehicle: saline) of the same compound?
Its T/C is 416 % of control.

And the T/C (dose: 200.0 mg/kg/injection, schedule: Q04DX002 (ip), vehicle: saline)?
Its T/C is 164 % of control.

What does the source list for `COc1cc2c[n+](C)c3c4cc5c(cc4ccc3c2cc1OC)OCO5`?
T/C (dose: 25.92 mg/kg/injection, schedule: Q04DX003 (ip), vehicle: distilled water + Tween-80): 118 % of control; T/C (dose: 43.2 mg/kg/injection, schedule: Q04DX003 (ip), vehicle: distilled water + Tween-80): 123 % of control; T/C (dose: 120.0 mg/kg/injection, schedule: Q04DX003 (ip), vehicle: distilled water + Tween-80): 115 % of control

For `COc1c(O)c2c(c3cc(C(=O)N4CCc5c4c(O)c(OC)c4[nH]c(C(=O)N6CC7CC78C6=CC(=O)c6[nH]cc(C)c68)cc54)[nH]c13)CCN2C(N)=O` (configuration not stated), which T/C (dose: 0.04 mg/kg/injection, schedule: Q01DX001 (ip), vehicle: DMSO) is on record?
Its T/C is 118 % of control.

And the T/C (dose: 0.06 mg/kg/injection, schedule: Q01DX001 (ip), vehicle: DMSO)?
The T/C was 123 % of control.

And the T/C (dose: 0.18 mg/kg/injection, schedule: Q01DX001 (ip), vehicle: DMSO)?
Its T/C is 109 % of control.
